Measured values reported in patent publication US7507860B2 (Pfizer Inc., priority 2004, dated 2009).

Tested on: male Syrian hamsters, ear sebaceous glands
Test: Animal model for inhibition of sebum production (hamster ear, HPLC of sebum lipids)
Assay type: in vivo, Syrian hamster
Details: 4 weeks; for % Reduction in CE (cholesterol ester) / % Reduction in WE (wax ester): 3-w/v % topical to ears twice daily, five days a week, difference from vehicle control; for Sum CE + WE: summation of % reduction in CE and WE, 3-w/v % topical
Experimental: Luderschmidt et al describes an animal model for testing whether compounds are capable of modulating sebum secretion. Arch. Derm. Res. 258, 185-191 (1977). This model uses male Syrian hamsters, whose ears contain sebaceous glands. The products of Example 1 and 4 were screened in this model.
Testing for sebum inhibition was carried out in the following manner. Male Syrian hamsters aged 9 to 10 weeks were introduced into the laboratory environment and acclimated for 2 weeks prior to use in the study. Each group consisted of 5 animals and run in parallel with vehicle and positive controls. Prior to administration, 30 mg of each compound was dissolved in 1 mL of a solvent consisting of transcutanol, ethanol, and propylene glycol (20/60/20% v/v) to achieve a final concentration of 3-w/v %.
Animals were dosed topically twice daily, five days a week, for 4 weeks. Each dose consisted of 25 micro liters of vehicle control or drug. The dose was applied to the ventral surfaces of both the right and left ears. All animals were sacrificed approximately 18-24 hours after the final dose. The right ears were collected from each animal and used for sebum analysis.
The ears were prepped for HPLC analysis in the following manner. One 8 mm distal biopsy punch was taken, just above the anatomical “V” mark in the ear to normalize the sample area. The punch was pulled apart. The ventral biopsy surface (the area where the topical dose was directly applied to the sebaceous glands) was retained for testing and the dorsal surface of the biopsy punch was discarded.
Tissue samples were blown with N2 gas and stored at −80° C. under nitrogen until HPLC analysis. In addition to ear samples, an aliquot of each drug and vehicle (at least 250 ul) was also stored at −80° C. for inclusion in the HPLC analysis.
HPLC analysis was carried out on an extract of the tissue sample. Tissue samples were contacted with 3 ml of solvent (a 4:1 admixture of 2,2,4-trimethylpentane and isopropyl alcohol). The mixture was shaken for 15 minutes and stored overnight at room temperature, protected from light. The next morning 1 milliliter of water was added to the sample and shaken for 15 minutes. The sample was then centrifuged at approximately 1500 rpm for 15 minutes. Two ml of the organic phase (top layer) was transferred to a glass vial, dried at 37° C., under nitrogen, for approximately 1 hour, and then lyophilized for approximately 48 hours. The samples were then removed from the lyophilizer and each vial was reconstituted with 600 μl of solvent A (trimethylpentane/tetrahydrofuran (99:1). The samples were then recapped and vortexed for 5 minutes.
200 μl of each sample was then transferred to a pre-labeled 200 μl HPLC vial with 200 μL glass inserts. The HPLC vials were placed in the autosampler tray for the Agilent 1100 series HPLC unit. The Agilent 1100 HPLC system consisted of a thermostated autosampler, a quarternary pump, a column heater, and an A/D interface module. All components were controlled by Agilent ChemStation software. A Waters Spherisorb S3W 4.6×100 mm analytical column was maintained at 30° C. by the Agilent column heater unit. The HPLC autosampler was programmed to maintain the sample temperature at 20 C throughout the run.
10 uL of each sample was injected in triplicate into the column. Two solvents were used for the solvent gradient. Solvent A was an admixture of trimethylpentane and tetrahydrofuran (99:1). Solvent B was ethylacetate. The gradient utilized is described in the table below: […]
The Sedex 75 Evaporative Light Scattering Detector (ELSD) was operated at 45° C. with a gain of 5, and N2 pressure maintained at 3.1 bar. Analog signal obtained by the instrument was sent to the Agilent A/D interface module where it was converted to a digital output. The conversion was based on a 10000-mAU/volt set point and the data rate was set at 10 Hz (0.03 min). The resulting digital output was then feed into the Agilent ChemStation software for integration of the peak area. […]

Row | Compound | % Reduction in CE (cholesterol ester) [%] | % Reduction in WE (wax ester) [%] | Sum CE + WE [%]
1 | CC(C)CC(Oc1ccc(C#N)c(C(F)(F)F)c1)C(=O)NCc1ccccc1 (stereo not drawn) [Example 1, 2-(4-Cyano-3-trifluoromethyl-phenoxy)-4-methyl-pentanoic acid benzylamide] | 32 | 52 | 84
2 | CCCC(Oc1ccc(C#N)c(C(F)(F)F)c1)C(=O)NCc1ccccc1 (stereo not drawn) [Example 4, 2-(4-Cyano-3-trifluoromethyl-phenoxy)-pentanoic acid benzylamide] | 15 | 31 | 46
